Among the data in patent US11116727B2, “Preparation containing 6,7-unsaturated-7-carbamoyl morphinan derivatives” (Shionogi & Co., Ltd., priority 2012, dated 2021) are water solubility and solubility values, retold here.

The nature of the series: Water solubility of the p-toluenesulfonic acid salt at different pH. The series is classed as physicochemical. Here is the method:
The water solubility of p-toluenesulfonic acid salt of the compound represented by the above formula (IA), namely 17-(cyclopropylmethyl)-6,7-didehydro-4,5α-epoxy-3,6,14-trihydroxy-N-[2-(3-phenyl-1,2,4-oxadiazol-5-yl) propan-2-yl]morphinan-7-carboxamide 4-methylbenzene sulfonic acid is more than 1,000 μg/mL in pH 1 or 4, but the water solubility in pH 7 decreases than the solubility in pH 1 or 4.

For the molecule `CC(C)(NC(=O)C1=C(O)[C@@H]2Oc3c(O)ccc4c3[C@@]23CCN(CC2CC2)[C@H](C4)[C@]3(O)C1)c1nc(-c2ccccc2)no1` [17-(cyclopropylmethyl)-6,7-didehydro-4,5α-epoxy-3,6,14-trihydroxy-N-[2-(3-phenyl-1,2,4-oxadiazol-5-yl)propan-2-yl]morphinan-7-carboxamide 4-methylbenzenesulfonic acid], the water solubility result (pH 7, compared with pH 1 or 4) is “decreases”. In addition, the solubility (commonly the concentration that dissolves in the medium under given conditions) (water, simulated gastric fluid, pH 1 or 4) was greater than 1000 µg/mL.
